The structures appear in SMILES notation.

This assay deals with S. typhimurium WT. Put plainly: Combined antimicrobial study between antibiotics and SMs. It is filed as cell-based, Salmonella enterica subsp. enterica serovar Typhimurium LT2. The conditions noted are these: for MBCAlone (MBC of the antibiotic by itself, no SM): S. typhimurium WT, adjusted M9 minimal broth; for MBCComb4 (MBC of antibiotic in antibiotic+SM4 combination) / SM4R (result of synergy testing, antibiotic+SM4): [SM4] 10 μM; for MBCComb5 (MBC of antibiotic in antibiotic+SM5 combination) / SM5R (result of synergy testing, antibiotic+SM5): [SM5] 25 μM; for reduction in MBC when combined with SM1: antibiotic combined with SM1; for effect of the presence of SM on antibiotic MBC: combined with SM1, SM3, SM4 or SM5. Here is the method:
Combined antimicrobial study between antibiotics and small molecules (SMs): The antimicrobial efficacy of several antibiotics commonly used to control Salmonella was studied once combined with the selected four SMs. […] The MBC of each antibiotic were pre-determined as described previously. Bacteria challenged with only SMs or antibiotics at the same concentrations were used to determine the ATB-SM combination effects. […] Plates were incubated in a Sunrise™ Tecan kinetic microplate reader for 12 hrs at 37° C. and the optical density (OD) was measure at 600 nm as described above. After challenging, survival was recorded following plating of the bacterial suspension on agar plate and incubated at 37° C. for 36 hrs. The ATB-SM combination effect was calculated as described in Doern CD, 2014 (12).

Take `CCn1cc(C(=O)O)c(=O)c2ccc(C)nc21` [Nalidixic Acid, nalidixic acid]: the “MBCAlone (MBC of the antibiotic by itself, no SM)” value stood at 16 µg/mL; the “MBCComb4 (MBC of antibiotic in antibiotic+SM4 combination)” value (“MBCComb4” below) is 16 µg/mL; the “SM4R (result of synergy testing, antibiotic+SM4)” value (“SM4R” for short) is recorded as “Ind”; the “MBCComb5 (MBC of antibiotic in antibiotic+SM5 combination)” value (“MBCComb5” below) came out at 16 µg/mL. Also, the “SM5R (result of synergy testing, antibiotic+SM5)” value (“SM5R” for short) is given as “Ind” and the “reduction in MBC when combined with SM1” value is given as “up to 70%”. Moreover, under “[SM1] 30 μM”, the “MBCComb1 (MBC of antibiotic in antibiotic+SM1 combination)” value (from here on “MBCComb1”) was 8 µg/mL and the “SM1R (result of synergy testing, antibiotic+SM1)” value (“SM1R” for short) is reported as “Ind”. For the same compound, where the note is “[SM1] 40 μM”, the “MBCComb1” value was 4.8 µg/mL and the “SM1R” value is recorded as “Ind”. Under “[SM3] 25 μM”, the “MBCComb3 (MBC of antibiotic in antibiotic+SM3 combination)” value (“MBCComb3” for short) stood at 16 µg/mL and the “SM3R (result of synergy testing, antibiotic+SM3)” value (shortened to “SM3R”) is recorded as “Ind”.

Turning to `C[C@@H](O)[C@H]1C(=O)N2C(C(=O)O)=C(S[C@@H]3CN[C@H](C(=O)N(C)C)C3)[C@H](C)[C@H]12` [Meropenem, meropenem], the “MBCAlone (MBC of the antibiotic by itself, no SM)” value was found to be 0.2 µg/mL; the “MBCComb4” value came out at 0.2 µg/mL; the “SM4R” value is reported as “Ind”; the “MBCComb5” value stood at 0.2 µg/mL. In addition, the “SM5R” value is “Ind” and the “reduction in MBC when combined with SM1” value was “up to 80%”. Besides, where the note is “[SM1] 5 μM”, the “MBCComb1” value was 0.16 µg/mL and the “SM1R” value is listed as “Add”. Further, where the note is “[SM1] 10 μM”, the “MBCComb1” value came out at 0.08 µg/mL and the “SM1R” value is “Add”. Also, for the setting “[SM1] 20 μM”, the “MBCComb1” value came out at 0.04 µg/mL and the “SM1R” value was “Add”. Under “[SM3] 15 μM”, the “MBCComb3” value came out at 0.16 µg/mL and the “SM3R” value is recorded as “Ind”. Also, where the note is “[SM3] 20 μM”, the “MBCComb3” value came to 0.08 µg/mL and the “SM3R” value is on record as “Ind”.

`CC[C@H]1OC(=O)[C@H](C)[C@@H](O[C@H]2C[C@@](C)(OC)[C@@H](O)[C@H](C)O2)[C@H](C)[C@@H](O[C@@H]2O[C@H](C)C[C@H](N(C)C)[C@H]2O)[C@](C)(O)C[C@@H](C)C(=O)[C@H](C)[C@@H](O)[C@]1(C)O` [Erythromycin, erythromycin]: the “MBCAlone (MBC of the antibiotic by itself, no SM)” value came out at 200 µg/mL; the “MBCComb4” value was determined as 200 µg/mL; the “SM4R” value is recorded as “Ind”; the “MBCComb5” value is 200 µg/mL. In addition, the “SM5R” value is reported as “Ind” and the “effect of the presence of SM on antibiotic MBC” value is “no effect”. Besides, where the note is “[SM1] 50 μM”, the “MBCComb1” value was 200 µg/mL and the “SM1R” value is recorded as “Ind”. For the setting “[SM3] 25 μM”, the “MBCComb3” value was 200 µg/mL and the “SM3R” value is “Ind”.

Take `CO/N=C(\C(=O)N[C@@H]1C(=O)N2C(C(=O)O)=C(COC(C)=O)CS[C@H]12)c1csc(N)n1` [Cefotaxime, cefotaxime]: the “MBCAlone (MBC of the antibiotic by itself, no SM)” value was 3.2 µg/mL; the “MBCComb4” value was determined as 3.2 µg/mL; the “SM4R” value is recorded as “Ind”; the “MBCComb5” value is 3.2 µg/mL. In addition, the “SM5R” value is recorded as “Ind” and the “effect of the presence of SM on antibiotic MBC” value is reported as “no effect”. For the same compound, where the note is “[SM1] 50 μM”, the “MBCComb1” value turned out to be 3.2 µg/mL and the “SM1R” value was “Ind”. Further, under “[SM3] 25 μM”, the “MBCComb3” value amounted to 3.2 µg/mL and the “SM3R” value is reported as “Ind”.
